The results in this text go back to patent US9943516B2, “Inhibitors of IRAK4 activity” (MERCK SHARP & DOHME CORP., priority 2014, dated 2018).

This test concerns the target IRAK4 (Homo sapiens (Human), UniProt Q9NWZ3). Kind of test: IRAK4 Kinase Assay (IMAP fluorescence polarization). The test is classed as biochemical. To be noted: 0.5 nM GST tagged IRAK4, 100 μM ATP, 30 minutes at 25° C. As to the method:
The kinase activity of IRAK4 is determined by its ability to catalyze the phosphorylation of a fluorescent polypeptide substrate. The extent of phosphorylation is measured using the IMAP technology (Molecular Devices) where the phosphorylated fluorescent substrate binds to the large M(III)-based nanoparticles which reduces the rotational speed of the substrate and thus increases its fluorescent polarization (FP).
20 μL reaction mixture contains 10 mM TriHCl, pH 7.2, 0.5 nM GST tagged IRAK4 (SignalChem), 100 nM fluorescent peptide substrate (RP7030, Molecular Devices), 100 μM ATP, 1 mM DDT, 1 mM MgCl2, and 0.01% Tween 20. The reaction is initiated by the addition of ATP. After incubation for 30 minutes at 25° C., 60 μL of Progressive IMAP Reagent (Molecular Devices) is added to stop the reaction. Change in RP7030's FP is determined by a FP reader (Analyst HT, LJL BioSystems).

pIC50: −log10 of the molar value.

IRAK4, sequence (Q9NWZ3 whole entry): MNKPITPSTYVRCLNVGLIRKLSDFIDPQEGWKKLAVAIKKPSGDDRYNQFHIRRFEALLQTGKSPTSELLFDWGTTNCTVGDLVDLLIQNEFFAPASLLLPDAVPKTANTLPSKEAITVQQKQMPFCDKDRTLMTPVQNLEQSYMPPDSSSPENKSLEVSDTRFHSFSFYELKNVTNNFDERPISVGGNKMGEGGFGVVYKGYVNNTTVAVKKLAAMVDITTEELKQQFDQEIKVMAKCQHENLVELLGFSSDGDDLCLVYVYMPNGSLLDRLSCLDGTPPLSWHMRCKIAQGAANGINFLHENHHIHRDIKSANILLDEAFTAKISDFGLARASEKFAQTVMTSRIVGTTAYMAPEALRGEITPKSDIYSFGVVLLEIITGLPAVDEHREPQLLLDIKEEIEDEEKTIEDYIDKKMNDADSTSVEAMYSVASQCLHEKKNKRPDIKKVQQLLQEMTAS

Compound `N#CC1CCC(c2ccc3ncnc(N[C@H]4CC[C@H](N5CCOCC5)CC4)c3c2)CC1` (stereo partly drawn) [Example 3-2, 4-{4-[(trans-4-morpholin-4-ylcyclohexyl)amino]quinazolin-6-yl}cyclohexanecarbonitrile] gave a pIC50 of 6.77.
`Fc1cc2ncnc(N[C@H]3CC[C@H](N4CCOCC4)CC3)c2cc1C1CC1` [Example 1-4, 6-cyclopropyl-7-fluoro-N-(trans-4-morpholin-4-ylcyclohexyl)quinazolin-4-amine]: the pIC50 is 7.92.
`CC1(c2ccc3ncnc(N[C@H]4CC[C@H](N5CCOCC5)CC4)c3c2)CC1` [Example 1-5, 6-(1-methylcyclopropyl)-N-(trans-4-morpholin-4-ylcyclohexyl)quinazolin-4-amine] gave a pIC50 of 7.28.
In the case of `c1nc(N[C@H]2CC[C@H](N3CCOCC3)CC2)c2cc(C3CCOCC3)ccc2n1` [Example 3-4, N-(trans-4-morpholin-4-ylcyclohexyl)-6-(tetrahydro-2H-pyran-4-yl)quinazolin-4-amine], the pIC50 was 7.04.
With `c1nc(N[C@H]2CC[C@H](N3CCOCC3)CC2)c2cc(C3CCCCC3)ccc2n1` [Example 1-8, 6-cyclohexyl-N-(trans-4-morpholin-4-ylcyclohexyl)quinazolin-4-amine], the negative-log IC50 (pIC50) is 7.72.
Compound `O=C(O)C1CCC(c2ccc3ncnc(N[C@H]4CC[C@H](N5CCOCC5)CC4)c3c2)CC1` (stereo partly drawn) [Example 3-6, 4-{4-[(trans-4-morpholin-4-ylcyclohexyl)amino]quinazolin-6-yl}cyclohexanecarboxylic acid] gave a pIC50 of 7.01. This pIC50 is 0.71 log units lower than that of the compound before.
Under `c1nc(N[C@H]2CC[C@H](N3CCOCC3)CC2)c2cc(C3CCCC3)ccc2n1` [Example 1-7, 6-cyclopentyl-N-(trans-4-morpholin-4-ylcyclohexyl)quinazolin-4-amine] stands 8.30.
The value for `OC1CCCC(c2ccc3ncnc(N[C@H]4CC[C@H](N5CCOCC5)CC4)c3c2)C1` (stereo partly drawn) [Example 4-2, 3-(4-(((trans)-4-Morpholinocyclohexyl)amino)quinazolin-6-yl)cyclohexanol] was 7.26; that for `OC1CCCC(c2ccc3ncnc(N[C@H]4CC[C@H](N5CCOCC5)CC4)c3c2)C1` (single isomer, unassigned) [Example 4-1, 3-(4-(((trans)-4-Morpholinocyclohexyl)amino)quinazolin-6-yl)cyclohexanol] was 7.41.
`c1nc(N[C@H]2CC[C@H](N3CCOCC3)CC2)c2cc(C3COC3)ccc2n1` [Example 2-1, N-((trans)-4-morpholinocyclohexyl)-6-(oxetan-3-yl)quinazolin-4-amine]: the pIC50 was 7.49.
The value for `c1nc(N[C@H]2CC[C@H](N3CCOCC3)CC2)c2cc(C3CCCOC3)ccc2n1` (stereo partly drawn) [Example 3-5, N-(trans-4-morpholin-4-ylcyclohexyl)-6-(tetrahydro-2H-pyran-3-yl)quinazolin-4-amine] was 7.89; that for `c1nc(N[C@H]2CC[C@H](N3CCOCC3)CC2)c2cc(C3CCC3)ccc2n1` [Example 1-6, 6-cyclobutyl-N-(trans-4-morpholin-4-ylcyclohexyl)quinazolin-4-amine] was 8.52.
Under `c1nc(N[C@H]2CC[C@H](N3CCOCC3)CC2)c2cc(C3CCOC3)ccc2n1` (stereo partly drawn) [Example 2-2, N-(trans-4-morpholin-4-ylcyclohexyl)-6-(tetrahydrofuran-3-yl)quinazolin-4-amine] stands 7.74; under `FC1(F)CCC(c2ccc3ncnc(N[C@H]4CC[C@H](N5CCOCC5)CC4)c3c2)CC1` [Example 3-3, 6-(4,4-difluorocyclohexyl)-N-(trans-4-morpholin-4-ylcyclohexyl)quinazolin-4-amine], 7.15.
Consider `c1nc(N[C@H]2CC[C@H](N3CCOCC3)CC2)c2cc(C3CC3)ccc2n1` [Example 1-3, 6-cyclopropyl-N-(trans-4-morpholin-4-ylcyclohexyl)quinazolin-4-amine], for which the pIC50 is 8.30.
With `OC1CCCC(c2ccc3ncnc(N[C@H]4CC[C@H](N5CCOCC5)CC4)c3c2)C1` (single isomer, unassigned) [Example 4-3, 3-(4-(((trans)-4-Morpholinocyclohexyl)amino)quinazolin-6-yl)cyclohexanol], the pIC50 is 7.96. This pIC50 is 0.34 log units lower than that of the compound before.
On to `CN(C)C1CCC(Nc2ncnc3ccc(C4CC4)cc23)CC1` (stereo not shown) [Example 1-2, N′-(6-cyclopropylquinazolin-4-yl)-N,N-dimethylcyclohexane-1,4-diamine], for which the negative logarithm of the IC50 (pIC50) is 7.92.
As for `Cc1c(C2CC2)ccc2ncnc(N[C@H]3CC[C@H](N4CCOCC4)CC3)c12` [Example 1-1, 6-Cyclopropyl-5-methyl-N-(trans-4-morpholinocyclohexyl)quinazolin-4-amine], the pIC50 was 6.46.
On to `c1nc(N[C@H]2CC[C@H](N3CCOCC3)CC2)c2cc(C3CCCO3)ccc2n1` (stereo partly drawn) [Example 3-1, N-((trans)-4-morpholinocyclohexyl)-6-(tetrahydrofuran-2-yl)quinazolin-4-amine], for which the pIC50 was 6.77.

The pIC50 is the IC50 on a negative log10 scale, so that one unit is a factor of ten.
